In US11033539B2, “Compounds of formulas (VII), (VIII), (IX), (XI), (XII), (XIII), and (XIV) as muscarinic receptor 4(M4) antagonists for treating neurological diseases” (Neurocrine Biosciences, Inc., priority 2015, dated 2021):

Tests used:
[1] = target: human M2 receptor (Homo sapiens (Human), UniProt P08172); assay: Radioligand (tritiated N-methylscopolamine) binding assay, M2; settings: CHO cell membranes expressing human M2; 1.5 nM tritiated N-methylscopolamine; 90 min, 37° C.; read-out: Ki against M2 receptor (Table 21, M2)
Sequence of human M2 receptor (P08172 whole entry): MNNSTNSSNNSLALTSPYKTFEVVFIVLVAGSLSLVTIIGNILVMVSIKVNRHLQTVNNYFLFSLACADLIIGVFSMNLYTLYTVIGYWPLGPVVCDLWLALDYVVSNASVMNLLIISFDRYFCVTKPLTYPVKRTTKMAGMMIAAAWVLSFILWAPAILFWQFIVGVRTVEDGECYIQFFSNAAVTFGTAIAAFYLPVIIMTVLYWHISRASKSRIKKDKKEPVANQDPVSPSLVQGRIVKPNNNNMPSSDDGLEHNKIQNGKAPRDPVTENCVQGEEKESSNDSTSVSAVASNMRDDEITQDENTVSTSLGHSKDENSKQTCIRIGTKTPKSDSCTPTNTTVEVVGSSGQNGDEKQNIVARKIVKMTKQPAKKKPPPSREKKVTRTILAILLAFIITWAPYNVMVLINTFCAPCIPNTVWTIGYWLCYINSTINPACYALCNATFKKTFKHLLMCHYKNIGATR
Procedure, shortened: (§1)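 Ki from displacement of 1.5 nM [3H]N-methylscopolamine on membranes of CHO cells expressing each human receptor. Twelve compound concentrations (10 μM to […]), 90 min at 37° C in 50 mM HEPES, 100 mM NaCl, 5 mM MgCl2, 1 mM EDTA, pH 7.4. Bound ligand was captured by PEI-treated glass-fiber filtration and counted.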

[2] = target: human M4 receptor (Homo sapiens (Human), UniProt P08173); assay: Radioligand (tritiated N-methylscopolamine) binding assay, M4; settings: Ki against the M4 receptor; membranes from CHO cells expressing human M4; tritiated N-methylscopolamine 1.5 nM; read-out: Ki
Sequence of human M4 receptor (P08173 whole entry): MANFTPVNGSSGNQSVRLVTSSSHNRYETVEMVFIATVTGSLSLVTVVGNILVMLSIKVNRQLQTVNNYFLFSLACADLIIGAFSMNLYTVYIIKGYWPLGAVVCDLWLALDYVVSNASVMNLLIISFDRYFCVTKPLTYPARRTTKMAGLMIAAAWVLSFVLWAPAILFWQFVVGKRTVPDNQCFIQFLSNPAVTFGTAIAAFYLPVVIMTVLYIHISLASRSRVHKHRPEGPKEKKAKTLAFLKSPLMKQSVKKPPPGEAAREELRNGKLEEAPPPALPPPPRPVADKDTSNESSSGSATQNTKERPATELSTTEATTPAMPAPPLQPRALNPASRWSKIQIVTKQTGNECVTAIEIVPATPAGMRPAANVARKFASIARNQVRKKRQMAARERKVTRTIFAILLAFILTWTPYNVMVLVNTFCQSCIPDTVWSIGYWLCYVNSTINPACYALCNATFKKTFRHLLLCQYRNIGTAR
Procedure, shortened: as §1

[3] = target: human M5 receptor (Homo sapiens (Human), UniProt P08912); assay: Radioligand (tritiated N-methylscopolamine) binding assay, M5; settings: CHO cell membranes expressing human M5; 1.5 nM tritiated N-methylscopolamine; 90 min, 37° C.; read-out: Ki against M5 receptor (Table 21, M5)
Sequence of human M5 receptor (P08912 whole entry): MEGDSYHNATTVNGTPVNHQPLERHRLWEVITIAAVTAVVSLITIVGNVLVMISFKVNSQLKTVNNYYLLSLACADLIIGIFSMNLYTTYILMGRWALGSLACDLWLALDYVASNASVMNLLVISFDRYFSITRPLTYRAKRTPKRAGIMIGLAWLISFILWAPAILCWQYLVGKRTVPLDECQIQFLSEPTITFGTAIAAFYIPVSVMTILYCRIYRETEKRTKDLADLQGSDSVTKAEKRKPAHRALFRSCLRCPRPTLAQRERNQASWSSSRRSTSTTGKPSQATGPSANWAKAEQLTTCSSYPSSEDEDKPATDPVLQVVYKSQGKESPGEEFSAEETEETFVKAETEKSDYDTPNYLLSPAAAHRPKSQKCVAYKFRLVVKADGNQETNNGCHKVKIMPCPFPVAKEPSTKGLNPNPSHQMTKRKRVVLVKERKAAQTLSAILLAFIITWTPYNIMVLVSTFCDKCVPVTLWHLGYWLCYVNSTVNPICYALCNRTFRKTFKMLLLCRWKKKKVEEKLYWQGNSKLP
Procedure, shortened: as §1

[4] = target: human M1 receptor (Homo sapiens (Human), UniProt P11229); assay: Radioligand (tritiated N-methylscopolamine) binding assay, M1; settings: CHO cell membranes expressing human M1; 1.5 nM tritiated N-methylscopolamine; 90 min, 37° C.; read-out: Ki against M1 receptor (Table 21, M1)
Sequence of human M1 receptor (P11229 whole entry): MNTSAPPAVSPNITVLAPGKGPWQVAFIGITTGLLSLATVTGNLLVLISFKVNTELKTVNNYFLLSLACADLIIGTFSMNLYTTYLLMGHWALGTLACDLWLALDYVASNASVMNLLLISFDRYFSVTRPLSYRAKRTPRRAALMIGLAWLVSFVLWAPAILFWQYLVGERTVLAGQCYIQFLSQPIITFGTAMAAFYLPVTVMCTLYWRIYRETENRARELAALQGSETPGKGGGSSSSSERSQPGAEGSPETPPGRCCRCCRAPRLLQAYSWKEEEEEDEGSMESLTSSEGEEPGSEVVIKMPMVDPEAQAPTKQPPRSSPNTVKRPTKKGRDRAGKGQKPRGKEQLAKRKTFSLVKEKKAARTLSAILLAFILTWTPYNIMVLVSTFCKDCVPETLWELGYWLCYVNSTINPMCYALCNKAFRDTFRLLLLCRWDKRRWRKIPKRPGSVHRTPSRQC
Procedure, shortened: as §1

[5] = target: human M3 receptor (Homo sapiens (Human), UniProt P20309); assay: Radioligand (tritiated N-methylscopolamine) binding assay, M3; settings: CHO cell membranes expressing human M3; 1.5 nM tritiated N-methylscopolamine; 90 min, 37° C.; read-out: Ki against M3 receptor (Table 21, M3)
Sequence of human M3 receptor (P20309 whole entry): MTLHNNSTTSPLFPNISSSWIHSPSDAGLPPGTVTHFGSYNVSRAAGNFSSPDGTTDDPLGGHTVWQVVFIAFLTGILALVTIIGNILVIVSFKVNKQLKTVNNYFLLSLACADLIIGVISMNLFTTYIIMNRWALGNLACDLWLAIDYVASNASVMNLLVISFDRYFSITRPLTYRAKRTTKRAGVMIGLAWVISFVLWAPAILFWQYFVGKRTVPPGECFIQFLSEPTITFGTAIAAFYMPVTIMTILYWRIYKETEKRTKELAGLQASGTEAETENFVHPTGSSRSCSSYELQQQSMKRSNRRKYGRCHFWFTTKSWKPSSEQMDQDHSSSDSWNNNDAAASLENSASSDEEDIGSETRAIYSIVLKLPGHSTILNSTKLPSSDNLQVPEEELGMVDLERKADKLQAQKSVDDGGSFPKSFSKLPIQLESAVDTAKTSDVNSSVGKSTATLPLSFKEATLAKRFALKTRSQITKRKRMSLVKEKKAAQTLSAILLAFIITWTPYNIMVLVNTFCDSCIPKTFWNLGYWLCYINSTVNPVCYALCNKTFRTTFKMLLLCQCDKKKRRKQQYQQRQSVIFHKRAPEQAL
Procedure, shortened: as §1

Row | SMILES | Ki [1] | Ki [2] | Ki [3] | Ki [4] | Ki [5]
1 | O=C(NCCC1CCN(Cc2ccccc2)CC1)N1CCN(c2cnc(C(F)(F)F)cn2)CC1 [22-25, N-[2-(1-benzylpiperidin-4-yl)ethyl]-4-[5-(trifluoromethyl)pyrazin-2-yl]piperazine-1-carboxamide] | 10 to 100 nM | < 10 nM | > 1000 nM | > 1000 nM | > 1000 nM
2 | C[C@@H]1CN(c2ncc(C(F)(F)F)cn2)CCN1C(=O)NCCC1CCN(Cc2cccc(F)c2)CC1 [6-36, (2R)-N-(2-{1-[(3-fluorophenyl)methyl]piperidin-4-yl}ethyl)-2-methyl-4-[5-(trifluoromethyl)pyrimidin-2-yl]piperazine-1-carboxamide] | 100 to 1000 nM | < 10 nM | > 1000 nM | 100 to 1000 nM | > 1000 nM
3 | C[C@@H]1CN(c2cc(F)c(F)c(F)c2)CCN1C(=O)NCCC1CCN(Cc2cccs2)CC1 [6-26, (2R)-2-methyl-N-{2-[1-(thiophen-2-ylmethyl)piperidin-4-yl]ethyl}-4-(3,4,5-trifluorophenyl)piperazine-1-carboxamide] | 10 to 100 nM | < 10 nM | > 1000 nM | 100 to 1000 nM | > 1000 nM
4 | C[C@@H]1CN(c2cc(F)cc(C#N)c2)CCN1C(=O)NC[C@@H](O)C1CCN(Cc2ccccc2)CC1 [9-5, (2R)-N-[(2S)-2-(1-benzylpiperidin-4-yl)-2-hydroxyethyl]-4-(3-cyano-5-fluorophenyl)-2-methylpiperazine-1-carboxamide] | > 1000 nM | < 10 nM | > 1000 nM | > 1000 nM | > 1000 nM
5 | N#Cc1cc(F)cc(N2CCC(C(=O)NCCC3CCN(Cc4ccccc4)CC3)CC2)c1 [10-14, N-[2-(1-benzylpiperidin-4-yl)ethyl]-1-(3-cyano-5-fluorophenyl)piperidine-4-carboxamide] | 100 to 1000 nM | < 10 nM | > 1000 nM | > 1000 nM | > 1000 nM
6 | C[C@H]1CN(c2ncc(C(F)(F)F)cc2F)CCC1C(=O)NCCC1CCN(Cc2ccccc2)CC1 (stereo partly drawn) [10-81, (3R)-N-[2-(1-benzylpiperidin-4-yl)ethyl]-1-[3-fluoro-5-(trifluoromethyl)pyridin-2-yl]-3-methylpiperidine-4-carboxamide] | 10 to 100 nM | < 10 nM | 100 to 1000 nM | 10 to 100 nM | 10 to 100 nM
7 | O=C(NCCC1CCN(Cc2ccccc2)CC1)N1CCC(c2ccc(C(F)(F)F)cc2)CC1 [8-1, N-[2-(1-benzylpiperidin-4-yl)ethyl]-4-[4-(trifluoromethyl)phenyl]piperidine-1-carboxamide] | 100 to 1000 nM | < 10 nM | 100 to 1000 nM | 100 to 1000 nM | 100 to 1000 nM
8 | C[C@@H]1CN(C(=O)NCCC2CCN(Cc3ccccc3)CC2)CCN1c1cc(F)c(F)c(F)c1 [4-17, (3R)-N-[2-(1-benzylpiperidin-4-yl)ethyl]-3-methyl-4-(3,4,5-trifluorophenyl)piperazine-1-carboxamide] | 100 to 1000 nM | < 10 nM | > 1000 nM | > 1000 nM | > 1000 nM
9 | C[C@@H]1CN(c2cc(F)c(F)c(F)c2)CCN1C(=O)NCCC1CCN(Cc2ccc(O)cc2)CC1 [6-27, (2R)-N-(2-{1-[(4-hydroxyphenyl)methyl]piperidin-4-yl}ethyl)-2-methyl-4-(3,4,5-trifluorophenyl)piperazine-1-carboxamide] | 10 to 100 nM | < 10 nM | > 1000 nM | 100 to 1000 nM | 100 to 1000 nM
10 | C[C@@H]1CN(c2cc(F)c(C#N)cc2F)CCN1C(=O)NCCC1CCN(Cc2ccccc2)CC1 [22-10] | 100 to 1000 nM | < 10 nM | > 1000 nM | > 1000 nM | > 1000 nM
11 | C[C@@H]1CN(c2ccc(C#N)c(OC(F)(F)F)c2)CCN1C(=O)NCCC1CCN(Cc2ccccc2)CC1 [22-17] | 10 to 100 nM | < 10 nM | 100 to 1000 nM | 100 to 1000 nM | > 1000 nM
12 | COc1cc(C#N)cc(N2CCC(C(=O)NCCC3CCN(Cc4ccccc4)CC3)CC2)c1 [10-54, N-[2-(1-benzylpiperidin-4-yl)ethyl]-1-(3-cyano-5-methoxyphenyl)piperidine-4-carboxamide] | 10 to 100 nM | < 10 nM | > 1000 nM | 100 to 1000 nM | > 1000 nM
13 | C[C@@H]1CN(c2ccc(C#N)c(F)c2)CCN1C(=O)NCCC1CCN(Cc2ccccc2)CC1 [22-15] | 10 to 100 nM | < 10 nM | 100 to 1000 nM | 100 to 1000 nM | > 1000 nM

Further lines, results first:

Row | Ki [1] | Ki [2] | Ki [3] | Ki [4] | Ki [5] | SMILES
14 | 10 to 100 nM | < 10 nM | > 1000 nM | > 1000 nM | > 1000 nM | C[C@@H]1CN(c2ncc(Cl)c(N)n2)CCN1C(=O)NCCC1CCN(Cc2ccccc2)CC1 [5-32, (2R)-4-(4-amino-5-chloropyrimidin-2-yl)-N-[2-(1-benzylpiperidin-4-yl)ethyl]-2-methylpiperazine-1-carboxamide]
15 | 10 to 100 nM | < 10 nM | > 1000 nM | 100 to 1000 nM | > 1000 nM | C[C@H]1CN(c2ccc(F)c(C#N)c2)CCN1C(=O)NCCC1CCN(Cc2ccccc2)CC1 [4-20, (2S)-N-[2-(1-benzylpiperidin-4-yl)ethyl]-4-(3-cyano-4-fluorophenyl)-2-methylpiperazine-1-carboxamide]
16 | 10 to 100 nM | < 10 nM | > 1000 nM | 100 to 1000 nM | > 1000 nM | C[C@@H]1CN(c2nc(Cl)cc(C#N)n2)C[C@H](C)N1C(=O)NCCC1CCN(Cc2ccccc2)CC1 [4-11, (2S,6R)-N-[2-(1-benzylpiperidin-4-yl)ethyl]-4-(4-chloro-6-cyanopyrimidin-2-yl)-2,6-dimethylpiperazine-1-carboxamide]
17 | 10 to 100 nM | < 10 nM | > 1000 nM | > 1000 nM | > 1000 nM | C[C@@H]1CN(c2ccc(C#N)c(F)c2)C[C@H](C)N1C(=O)NCCC1CCN(Cc2ccccc2)CC1 [22-4]
18 | 10 to 100 nM | < 10 nM | > 1000 nM | 100 to 1000 nM | 100 to 1000 nM | Cc1ccccc1CN1CCC(CCNC(=O)N2CCN(c3ncc(C(F)(F)F)cn3)C[C@H]2C)CC1 [6-35, (2R)-2-methyl-N-(2-{1-[(2-methylphenyl)methyl]piperidin-4-yl}ethyl)-4-[5-(trifluoromethyl)pyrimidin-2-yl]piperazine-1-carboxamide]
19 | 10 to 100 nM | < 10 nM | > 1000 nM | 100 to 1000 nM | > 1000 nM | CNc1nc(N2CCN(C(=O)NCCC3CCN(Cc4ccccc4)CC3)[C@H](C)C2)ncc1C#N [5-23, (2R)-N-[2-(1-benzylpiperidin-4-yl)ethyl]-4-[5-cyano-4-(methylamino)pyrimidin-2-yl]-2-methylpiperazine-1-carboxamide]
20 | 10 to 100 nM | < 10 nM | 100 to 1000 nM | 10 to 100 nM | 10 to 100 nM | C[C@H]1CN(c2ncc(C(F)(F)F)cn2)CCC1C(=O)NCCC1CCN(Cc2ccccc2)CC1 (stereo partly drawn) [20-2, (3R)-N-[2-(1-benzylpiperidin-4-yl)ethyl]-3-methyl-1-[5-(trifluoromethyl)pyrimidin-2-yl]piperidine-4-carboxamide]
21 | 100 to 1000 nM | < 10 nM | > 1000 nM | 100 to 1000 nM | 100 to 1000 nM | C[C@H]1CN(c2ncc(Cl)cn2)CCC1C(=O)NCCC1CCN(Cc2ccccc2)CC1 (stereo partly drawn) [20-3, (3R)-N-[2-(1-benzylpiperidin-4-yl)ethyl]-1-(5-chloropyrimidin-2-yl)-3-methylpiperidine-4-carboxamide]
22 | 100 to 1000 nM | < 10 nM | > 1000 nM | 100 to 1000 nM | > 1000 nM | Cc1nc(N2CCN(C(=O)NCCC3CCN(Cc4ccccc4)CC3)[C@H](C)C2)ccc1F [4-19, (2R)-N-[2-(1-benzylpiperidin-4-yl)ethyl]-4-(5-fluoro-6-methylpyridin-2-yl)-2-methylpiperazine-1-carboxamide]
23 | < 10 nM | < 10 nM | 100 to 1000 nM | 100 to 1000 nM | 100 to 1000 nM | C[C@@H]1CN(c2ncc(C#N)cn2)C[C@H](C)N1C(=O)NCCC1CCN(Cc2ccc3[nH]ccc3c2)CC1 [6-47, (2R,6S)-4-(5-cyanopyrimidin-2-yl)-N-{2-[1-(1H-indol-5-ylmethyl)-piperidin-4-yl]ethyl}-2,6-dimethylpiperazine-1-carboxamide]
24 | 10 to 100 nM | < 10 nM | > 1000 nM | > 1000 nM | > 1000 nM | C[C@@H]1CN(c2ncc(Cl)cn2)C[C@H](C)N1C(=O)NCCC1CCN(Cc2ccccc2)CC1 [5-18, (2S,6R)-N-[2-(1-benzylpiperidin-4-yl)ethyl]-4-(5-chloropyrimidin-2-yl)-2,6-dimethylpiperazine-1-carboxamide]
25 | 100 to 1000 nM | < 10 nM | > 1000 nM | 100 to 1000 nM | > 1000 nM | C[C@@H]1CN(c2ccc(F)c(C#N)c2)CCN1C(=O)NCCC1CCN(Cc2ccccc2)CC1 [4-1, (2R)-N-[2-(1-benzylpiperidin-4-yl)ethyl]-4-(3-cyano-4-fluorophenyl)-2-methylpiperazine-1-carboxamide]
